Source: US20230092005A1, “COMPOSITIONS AND METHODS FOR TREATING CANCER AND TUMOR” (OBLATO, INC., priority 2020, published 2023)
Several values for one entry are separate records, joined by “and”; a condition that tells them apart may be missing. Equal values may be shown once.

Test system: human A549 lung cancer xenografts
Assay: TUNEL staining of extracted A549 xenograft tumors (apoptosis counting and grading)
Type: in vivo, BALB/c Nude mouse
Settings: for Apoptosis grade + : number of animals / Apoptosis grade ++ (moderate): number of animals / Apoptosis grade +++ (marked): number of animals / Apoptosis grade ++++ (severe): number of animals / Apoptosis grade ± (minimal): number of animals: N=10; for Apoptosis counting No. (group mean ± S.D.): TUNEL positive cells per 1 mm^2
From the text: Histopathological test: The extracted tumors were fixed in 10% neutral buffered formalin solution (10% neutral buffered formalin). After sectioning the tumors to a certain thickness (about 3 mm), those were subjected to the general preparation procedure, embedded in paraffin, cut into 4 to 5 μm size, and tissue sections were stained with Hematoxylin and Eosin (H&E) and TUNEL. IHC (Immunohistochemistry) slides, cut into 4 to 5 μm size, were produced and sent to the sponsor (Negative Control Group (G1), Test substance 2 (G3, Animal ID Nos.: 1301, 1302, 1303, 1307, 1310), Test substance 3 (G4, Animal ID Nos.: 1401, 1402, 1404, 1408, 1409)). Determination of TUNEL staining results: After histological examination of the entire cross-section of the tumor for grading (±, +, ++, +++, ++++) of apoptosis, the nucleated brown stained cells were read as […] was counted. The apoptosis of the tumor was determined by the number of positive cells per […] (1 mm^2). The apoptosis of the tumor was determined by calculating the average number of positive cells and graded into the corresponding severity. The number of positive cells in which apoptosis occurred was determined by counting the number of positive cells per unit area (1 mm^2). Histopathological test (Table 7, FIGS. 7-11): The extracted fixed tumor was cut to a certain thickness (about 3 mm), then subjected to general tissue treatment, paraffin-embedded to produce blocks, and tissue sections of 4 to 5 μm in size were prepared. Then, Hematoxylin & Eosin (H&E) staining and TUNEL staining were performed.

CC(C)(C)/[N+]([O-])=C/c1ccc(S(=O)(=O)O)cc1S(=O)(=O)O [OKN-007, Disodium 4-[(Z)-[tert-butyl(oxido)azaniumylidene]methyl]benzene-1,3-disulfonate]
Apoptosis grade + : number of animals (G2, 150 mg/kg P.O.): 1
Apoptosis grade ++ (moderate): number of animals (G2, 150 mg/kg P.O.): 0
Apoptosis grade +++ (marked): number of animals (G2, 150 mg/kg P.O.): 0
Apoptosis grade ++++ (severe): number of animals (G2, 150 mg/kg P.O.): 0
Apoptosis grade ± (minimal): number of animals (G2, 150 mg/kg P.O.): 9
Apoptosis counting No. (group mean ± S.D.) (G2, 150 mg/kg P.O.): 79.6±29.8 No./mm^2 and 79.6 ± 20.8 No./mm^2
Apoptosis grade + : number of animals (G3, 300 mg/kg P.O.): 2
Apoptosis grade ++ (moderate): number of animals (G3, 300 mg/kg P.O.): 0
Apoptosis grade +++ (marked): number of animals (G3, 300 mg/kg P.O.): 0
Apoptosis grade ++++ (severe): number of animals (G3, 300 mg/kg P.O.): 0
Apoptosis grade ± (minimal): number of animals (G3, 300 mg/kg P.O.): 8
Apoptosis counting No. (group mean ± S.D.) (G3, 300 mg/kg P.O.): 91.5±32.2 No./mm^2
Apoptosis grade + : number of animals (G4, 600 mg/kg P.O.): 5
Apoptosis grade ++ (moderate): number of animals (G4, 600 mg/kg P.O.): 2
Apoptosis grade +++ (marked): number of animals (G4, 600 mg/kg P.O.): 0
Apoptosis grade ++++ (severe): number of animals (G4, 600 mg/kg P.O.): 0
Apoptosis grade ± (minimal): number of animals (G4, 600 mg/kg P.O.): 3
Apoptosis counting No. (group mean ± S.D.) (G4, 600 mg/kg P.O.): 149.9±59.5 No./mm^2
